ChEMBL document CHEMBL1201862, “PubChem BioAssay data set” (2004)
Active and inactive are the calls of the source.

How the values were obtained:
[1] = molecular target: Beta-galactosidase (Escherichia coli, UniProt Q8VNN2); assay: PubChem AID 485352; assay type: functional
[2] = molecular target: T1, Type-1 angiotensin II receptor (Homo sapiens, UniProt P30556); assay: AT1 receptor antagonists, dose response, selectivity assay for APJ receptor antagonist project, cell-based, uHTS hits (AID 463214); assay type: functional;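 further: antagonist potency against angiotensin II stimulated AT1 response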
T1 sequence (P30556 whole entry): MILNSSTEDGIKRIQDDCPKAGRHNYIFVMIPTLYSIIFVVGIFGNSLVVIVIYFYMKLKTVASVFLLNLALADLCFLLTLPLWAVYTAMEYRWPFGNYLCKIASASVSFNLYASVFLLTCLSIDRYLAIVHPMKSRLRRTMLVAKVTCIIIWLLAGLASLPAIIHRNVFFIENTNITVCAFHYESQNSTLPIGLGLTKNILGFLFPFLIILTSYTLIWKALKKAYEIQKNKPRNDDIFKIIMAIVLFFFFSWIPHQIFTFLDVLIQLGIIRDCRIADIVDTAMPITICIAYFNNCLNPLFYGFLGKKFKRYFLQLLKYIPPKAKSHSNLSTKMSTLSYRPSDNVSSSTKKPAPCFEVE

[3] = molecular target: Heat shock protein HSP 90-alpha (Homo sapiens, UniProt P07900); assay type: functional, organism-based
[4] = THP-1 cell cytotoxicity, dose response, cytotoxicity control for Vif-APOBEC3G degradation inhibitor project, THP-1 cells (AID 1117359); assay type: functional; details: Human immunodeficiency virus 1, THP-1
[5] = molecular target: Cytochrome P450 2C19 (Homo sapiens, UniProt P33261); assay: Cytochrome panel assay with activity outcomes. Panel member name: p450-cyp2c19 Compounds with AC50 equal or less than 10 uM are considered active; assay type: functional; details: read-out: AC50
[6] = molecular target: Adenosylmethionine-8-amino-7-oxononanoate aminotransferase (Mycobacterium tuberculosis, UniProt P9WQ81); assay: Mycobacterium tuberculosis BioA enzyme inhibitor Measured in Biochemical System Using Plate Reader - 2163-02_Inhibitor_Dose_CherryPick_Activity.; assay type: functional, Mycobacterium tuberculosis UT205
[7] = molecular target: T2, Cytochrome P450 1A2 (Homo sapiens, UniProt P05177);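 further: PubChem cytochrome P450 panel assay, CYP1A2 panel member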
T2 sequence (P05177 whole entry): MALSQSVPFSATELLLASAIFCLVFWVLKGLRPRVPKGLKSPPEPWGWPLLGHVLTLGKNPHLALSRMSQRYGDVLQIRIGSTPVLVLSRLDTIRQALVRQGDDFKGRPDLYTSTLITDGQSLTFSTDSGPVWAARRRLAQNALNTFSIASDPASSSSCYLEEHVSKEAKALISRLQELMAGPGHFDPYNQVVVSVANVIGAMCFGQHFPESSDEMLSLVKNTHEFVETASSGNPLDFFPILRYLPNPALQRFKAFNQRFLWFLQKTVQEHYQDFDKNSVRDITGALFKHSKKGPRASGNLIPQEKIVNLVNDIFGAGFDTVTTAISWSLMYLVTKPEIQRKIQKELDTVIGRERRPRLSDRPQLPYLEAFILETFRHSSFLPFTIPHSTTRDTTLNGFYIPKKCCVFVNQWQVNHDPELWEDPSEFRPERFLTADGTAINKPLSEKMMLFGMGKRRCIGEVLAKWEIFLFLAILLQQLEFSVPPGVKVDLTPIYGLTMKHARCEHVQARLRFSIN

[8] = molecular target: Melanocortin receptor 4 (Homo sapiens, UniProt P32245); assay type: functional, cell-based;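 further: Cell-based assay with luminescence read-out, confirmatory dose-response testing for agonist activity of biased ligands at MC4R; human U2OS cells with tagged receptor and beta-arrestin; potency of agonists that increase receptor coupling to beta-arrestin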
[9] = molecular target: DNA repair and recombination protein RAD54-like (Homo sapiens, UniProt Q92698); assay: inhibitors of human RAD54 branch migration, confirmation, biochemical, fluorescence, cherry-picked samples, dose series (AID 651657); assay type: functional
[10] = tested on: H9c2; assay: cells; assay type: functional, cell-based; details: Rattus norvegicus, H9c2, Myocardium;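 further: confirmatory concentration-response retest of ultra-high-throughput screening hits for modulation of myocardial damage; cell death induced by hydrogen peroxide oxidative stress; compound pretreatment for 60 min then peroxide exposure for 2 h; potency is for protecting the cells against peroxide damage rather than for killing them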
[11] = Fluorescence-based cell-based high throughput dose response assay for inhibitors of the interaction of nucleotide-binding oligomerization domain containing 2 (NOD2) and the receptor-interacting serine-threonine kinase 2 (RIPK2).; assay type: functional; details: Homo sapiens
[12] = molecular target: Beta Lactamase (Pseudomonas aeruginosa, UniProt Q932Y6); assay: beta-lactamase reporter inhibitor potency, dose response, artefact control for NOD2-RIPK2 interaction inhibitor project, BLA reporter cells, FRET fluorescence (AID 651552); assay type: functional, cell-based
[13] = molecular target: T3, Fatty acid synthase (Homo sapiens, UniProt P49327); assay: FAS thioesterase domain inhibitors, dose response, biochemical, endpoint fluorescence intensity, uHTS hits (AID 624327); assay type: functional;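 further: fluorescence from hydrolysis of an O-methyl fluorescein acyl ester substrate by the enzyme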
[14] = molecular target: T3, Fatty acid synthase; assay: FAS thioesterase domain inhibitors, dose response, biochemical, kinetic fluorescence intensity (AID 624326); assay type: functional;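 further: rate of fluorescence rise from hydrolysis of a fluorogenic O-methyl fluorescein ester substrate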
[15] = molecular target: T4, Low molecular weight phosphotyrosine protein phosphatase (Homo sapiens, UniProt P24666); assay type: functional; details: read-out: IC50_Mean;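 further: Dose-response confirmation assay measuring inhibition of LMPTP enzyme activity by fluorescence intensity read-out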
T4 sequence (P24666 whole entry): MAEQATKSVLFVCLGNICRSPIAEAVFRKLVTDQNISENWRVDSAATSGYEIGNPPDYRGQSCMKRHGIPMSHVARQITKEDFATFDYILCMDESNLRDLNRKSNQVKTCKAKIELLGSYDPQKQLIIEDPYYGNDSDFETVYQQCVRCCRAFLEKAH

T3 sequence (P49327 whole entry, the tested form may be a part): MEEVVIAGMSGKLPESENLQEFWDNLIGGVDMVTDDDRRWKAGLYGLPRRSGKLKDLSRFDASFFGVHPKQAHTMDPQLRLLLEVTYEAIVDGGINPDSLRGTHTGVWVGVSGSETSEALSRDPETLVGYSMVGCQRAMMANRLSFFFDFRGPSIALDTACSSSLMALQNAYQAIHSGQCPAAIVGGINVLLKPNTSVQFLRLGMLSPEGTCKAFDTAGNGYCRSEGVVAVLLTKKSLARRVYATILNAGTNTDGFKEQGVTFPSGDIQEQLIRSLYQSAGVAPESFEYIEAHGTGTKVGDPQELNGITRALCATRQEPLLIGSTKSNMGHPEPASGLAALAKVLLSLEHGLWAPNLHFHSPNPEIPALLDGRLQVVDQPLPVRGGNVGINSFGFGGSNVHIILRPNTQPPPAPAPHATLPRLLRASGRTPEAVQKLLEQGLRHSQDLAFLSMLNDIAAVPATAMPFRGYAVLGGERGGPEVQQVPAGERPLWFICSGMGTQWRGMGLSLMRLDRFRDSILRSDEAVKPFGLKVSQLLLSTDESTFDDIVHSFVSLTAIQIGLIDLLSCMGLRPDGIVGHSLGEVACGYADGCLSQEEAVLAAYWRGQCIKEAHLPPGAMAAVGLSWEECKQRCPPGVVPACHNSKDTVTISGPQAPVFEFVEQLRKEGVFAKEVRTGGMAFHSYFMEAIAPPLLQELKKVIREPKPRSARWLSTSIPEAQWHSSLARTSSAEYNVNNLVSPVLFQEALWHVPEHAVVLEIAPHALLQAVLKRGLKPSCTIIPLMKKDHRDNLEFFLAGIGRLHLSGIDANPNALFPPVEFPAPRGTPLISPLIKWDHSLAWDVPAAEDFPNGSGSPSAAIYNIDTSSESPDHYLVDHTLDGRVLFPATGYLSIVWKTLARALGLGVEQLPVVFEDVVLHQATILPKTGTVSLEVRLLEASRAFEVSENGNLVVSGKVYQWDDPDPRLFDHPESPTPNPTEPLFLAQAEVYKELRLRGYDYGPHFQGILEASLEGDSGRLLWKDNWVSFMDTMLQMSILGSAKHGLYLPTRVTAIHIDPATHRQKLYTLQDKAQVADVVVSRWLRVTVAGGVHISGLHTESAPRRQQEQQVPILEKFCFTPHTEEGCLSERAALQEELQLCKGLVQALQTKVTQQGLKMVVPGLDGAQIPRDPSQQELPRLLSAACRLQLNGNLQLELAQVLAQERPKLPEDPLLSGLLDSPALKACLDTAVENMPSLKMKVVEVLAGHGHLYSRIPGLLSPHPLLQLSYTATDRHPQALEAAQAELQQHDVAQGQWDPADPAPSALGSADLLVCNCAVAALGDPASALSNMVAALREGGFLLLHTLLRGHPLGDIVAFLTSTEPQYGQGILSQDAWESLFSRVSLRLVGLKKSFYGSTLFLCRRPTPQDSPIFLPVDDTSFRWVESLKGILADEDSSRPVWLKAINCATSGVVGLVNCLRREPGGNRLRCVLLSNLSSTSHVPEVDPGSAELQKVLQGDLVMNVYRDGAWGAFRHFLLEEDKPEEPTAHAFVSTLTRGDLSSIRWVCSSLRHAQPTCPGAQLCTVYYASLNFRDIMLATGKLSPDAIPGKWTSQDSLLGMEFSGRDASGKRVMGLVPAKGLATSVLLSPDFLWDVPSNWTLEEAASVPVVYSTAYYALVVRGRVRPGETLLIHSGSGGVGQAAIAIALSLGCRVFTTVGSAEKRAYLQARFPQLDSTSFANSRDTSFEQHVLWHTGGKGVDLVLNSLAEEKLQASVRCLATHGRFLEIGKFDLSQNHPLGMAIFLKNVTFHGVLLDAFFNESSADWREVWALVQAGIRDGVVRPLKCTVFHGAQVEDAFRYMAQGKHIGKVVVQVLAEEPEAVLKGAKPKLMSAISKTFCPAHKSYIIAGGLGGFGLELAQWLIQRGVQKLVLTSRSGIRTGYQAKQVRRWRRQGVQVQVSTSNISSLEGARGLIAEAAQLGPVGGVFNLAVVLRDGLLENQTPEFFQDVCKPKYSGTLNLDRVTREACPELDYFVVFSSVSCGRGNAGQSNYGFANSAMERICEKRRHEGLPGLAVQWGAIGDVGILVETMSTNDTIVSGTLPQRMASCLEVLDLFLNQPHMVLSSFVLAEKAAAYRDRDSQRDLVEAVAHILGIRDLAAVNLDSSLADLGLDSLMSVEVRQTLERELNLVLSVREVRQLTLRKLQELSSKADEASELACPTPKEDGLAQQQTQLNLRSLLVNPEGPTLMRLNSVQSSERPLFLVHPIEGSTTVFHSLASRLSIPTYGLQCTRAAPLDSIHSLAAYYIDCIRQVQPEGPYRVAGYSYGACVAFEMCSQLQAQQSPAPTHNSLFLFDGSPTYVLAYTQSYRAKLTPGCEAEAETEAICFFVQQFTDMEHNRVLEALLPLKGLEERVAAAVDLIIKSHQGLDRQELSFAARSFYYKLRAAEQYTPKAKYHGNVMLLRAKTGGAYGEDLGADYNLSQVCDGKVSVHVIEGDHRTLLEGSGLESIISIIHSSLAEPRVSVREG
Chain of Melanocortin receptor 4 (P32245 whole entry): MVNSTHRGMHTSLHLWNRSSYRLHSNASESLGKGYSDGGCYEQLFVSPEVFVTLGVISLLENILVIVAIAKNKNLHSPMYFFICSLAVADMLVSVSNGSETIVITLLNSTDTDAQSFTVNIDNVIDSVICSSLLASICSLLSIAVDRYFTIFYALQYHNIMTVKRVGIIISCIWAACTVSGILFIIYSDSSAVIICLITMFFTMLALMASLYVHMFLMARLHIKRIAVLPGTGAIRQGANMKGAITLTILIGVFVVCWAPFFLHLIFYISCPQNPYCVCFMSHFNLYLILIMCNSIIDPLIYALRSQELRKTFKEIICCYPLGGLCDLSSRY
Chain of Adenosylmethionine-8-amino-7-oxononanoate aminotransferase (P9WQ81 whole entry): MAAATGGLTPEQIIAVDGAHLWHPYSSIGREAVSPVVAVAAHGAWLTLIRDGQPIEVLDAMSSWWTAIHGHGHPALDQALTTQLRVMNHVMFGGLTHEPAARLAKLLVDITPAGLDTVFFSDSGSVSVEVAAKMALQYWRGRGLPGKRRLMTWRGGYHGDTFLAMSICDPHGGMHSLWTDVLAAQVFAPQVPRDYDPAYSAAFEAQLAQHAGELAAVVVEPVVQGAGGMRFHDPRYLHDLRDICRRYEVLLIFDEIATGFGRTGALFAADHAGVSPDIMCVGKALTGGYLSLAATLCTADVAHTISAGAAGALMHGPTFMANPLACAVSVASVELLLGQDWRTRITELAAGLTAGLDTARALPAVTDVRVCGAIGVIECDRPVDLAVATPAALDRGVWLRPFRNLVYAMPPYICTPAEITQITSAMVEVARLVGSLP
Chain of Beta Lactamase (Q932Y6 whole entry, the tested form may be a part): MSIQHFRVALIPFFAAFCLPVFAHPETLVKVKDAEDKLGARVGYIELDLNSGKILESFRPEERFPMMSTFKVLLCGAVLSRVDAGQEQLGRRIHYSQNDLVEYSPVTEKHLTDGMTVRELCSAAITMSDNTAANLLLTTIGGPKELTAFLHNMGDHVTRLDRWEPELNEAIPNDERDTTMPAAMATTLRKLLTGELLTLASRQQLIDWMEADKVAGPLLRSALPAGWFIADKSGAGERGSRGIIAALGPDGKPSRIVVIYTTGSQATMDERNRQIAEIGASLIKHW
Chain of DNA repair and recombination protein RAD54-like (Q92698 whole entry): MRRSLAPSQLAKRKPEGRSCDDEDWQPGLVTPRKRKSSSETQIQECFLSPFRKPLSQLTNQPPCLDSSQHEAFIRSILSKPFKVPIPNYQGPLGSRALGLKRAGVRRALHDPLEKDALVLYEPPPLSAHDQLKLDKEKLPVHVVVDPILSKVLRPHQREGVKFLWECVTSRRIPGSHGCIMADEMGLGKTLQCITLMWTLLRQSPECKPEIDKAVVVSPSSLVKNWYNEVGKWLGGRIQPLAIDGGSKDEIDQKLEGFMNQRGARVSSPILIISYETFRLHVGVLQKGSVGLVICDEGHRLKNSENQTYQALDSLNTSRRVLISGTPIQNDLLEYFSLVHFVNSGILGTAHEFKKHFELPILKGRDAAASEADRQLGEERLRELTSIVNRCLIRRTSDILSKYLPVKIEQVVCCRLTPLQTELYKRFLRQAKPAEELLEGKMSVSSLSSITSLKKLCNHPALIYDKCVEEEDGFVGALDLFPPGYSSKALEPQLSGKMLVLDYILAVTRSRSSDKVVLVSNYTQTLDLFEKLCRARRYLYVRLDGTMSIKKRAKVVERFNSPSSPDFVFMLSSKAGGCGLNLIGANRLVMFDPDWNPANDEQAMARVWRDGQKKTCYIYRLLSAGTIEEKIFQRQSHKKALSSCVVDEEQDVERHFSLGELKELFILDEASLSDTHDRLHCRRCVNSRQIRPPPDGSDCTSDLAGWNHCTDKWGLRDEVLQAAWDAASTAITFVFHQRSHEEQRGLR
Chain of Cytochrome P450 2C19 (P33261 whole entry): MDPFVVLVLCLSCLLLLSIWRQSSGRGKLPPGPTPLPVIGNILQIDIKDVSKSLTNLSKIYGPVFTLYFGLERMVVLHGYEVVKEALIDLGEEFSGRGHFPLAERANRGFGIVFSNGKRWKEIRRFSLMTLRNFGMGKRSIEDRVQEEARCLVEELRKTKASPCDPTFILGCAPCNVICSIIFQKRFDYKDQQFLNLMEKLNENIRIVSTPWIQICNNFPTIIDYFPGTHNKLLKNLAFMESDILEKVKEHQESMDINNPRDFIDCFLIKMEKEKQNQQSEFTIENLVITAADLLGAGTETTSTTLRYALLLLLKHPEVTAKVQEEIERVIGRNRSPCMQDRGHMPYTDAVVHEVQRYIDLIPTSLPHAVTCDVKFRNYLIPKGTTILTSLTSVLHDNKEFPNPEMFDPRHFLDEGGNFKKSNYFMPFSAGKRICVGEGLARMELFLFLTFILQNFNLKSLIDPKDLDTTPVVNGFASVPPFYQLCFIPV

SMILES: Cc1ccc(C(C[N+](=O)[O-])Sc2ccc(N)cc2)cc1 (configuration not stated)
- EC50 [1]: 31.3 µM (active)
- IC50 [2]: 16.9 µM (active)
- AC50 [3]: 4.99 µM (active)
- CC50 [4]: > 40 µM (active)

SMILES: Cc1cc(/C=C(/C#N)C(=O)Nc2ccccc2)c(C)n1-c1cccnc1
- AC50 [5]: 2 µM (inconclusive)
- AC50 [6]: 0.306 µM (active)
- AC50 [7]: 1.78 µM (inconclusive)

SMILES: COc1ccc(COc2ccsc2C(=O)Nc2ccc(Cl)c(Cl)c2)cc1
- EC50 [8]: > 89.2 µM (inactive)

SMILES: COc1ccc(OC)c2c(C)cc(NCCN3CCOCC3)nc12
- AC50 [9]: 37.6 µM (active)

SMILES: Cc1cccc(-n2c(SCC(=O)N(C)C3CCS(=O)(=O)C3)nc3ccccc3c2=O)c1C (configuration not stated)
- AC50 [6]: 3.13 µM (active)

SMILES: COc1cccc(-c2cnc3c(NC(C)=O)cc(-c4cc(OC)c(OC)c(OC)c4)cn23)c1
- IC50 [10]: > 79 µM (inactive)
- EC50 [8]: > 89.2 µM (inactive)

SMILES: CCOC(=O)[C@]12Cc3cc(C)ccc3[C@H]1N(C1CCCCC1)C(=O)c1ccccc12
- IC50 [11]: 2.28 µM (active)
- IC50 [12]: 39 µM (inactive)
- IC50 [13]: 6.98 µM (active)
- IC50 [14]: 6.17 µM (active)

SMILES: CCOc1ccc(C(=O)N/N=C/c2cc([N+](=O)[O-])cs2)cc1
- IC50 [15]: 14.4 µM (active)
